Measured values reported in US7265156B2 (Dospharma, priority 2000, dated 2007).
Structures can show the parent of a compound that is named as a salt. Where two headings read alike, the source gives them in different places.

What was measured:
[1] = test system: rats made diabetic with fructose; assay: Anti-diabetic activity in rats made diabetic with fructose at 10% in the drinking water; format: in vivo, rat; conditions: for 21 days fructose (glycemia mM) / Control (glycemia mM): rats; for 21 days fructose (glycemia mM): group baseline after 21 days fructose, before treatment; for Control (glycemia mM): group baseline before fructose and before treatment
Method: The second model is prepared by administering fructose at 10% in the drinking water of the rats for three weeks. An insulin resistance develops, followed by diabetes of […] type. […]

NIDDM patients = conditions: humans, simultaneous administration, arginine 30 g intravenous over 30 min; cited from earlier work
[2] = test system: rats made diabetic with streptozotocin; assay: Anti-diabetic activity in rats made diabetic with streptozotocin; format: in vivo, rat; conditions: streptozotocin rats (50 mg/kg IP); for hyperglycemia after treatment: 30 mg/kg; for hyperglycemia before treatment: baseline of the 30 mg/kg group
Excerpt: From the pharmacological point of view, the anti-diabetic activity was studied on two models of rats made diabetic.

[3] = test system: hamsters made diabetic by fructose; assay: Anti-diabetic activity in hamsters made diabetic by fructose for three months; format: in vivo, hamster; conditions: for 2 weeks treatment (glycemia mg/dl): hamsters, fructose 3 months, 10 mg/kg/day, fructose only 143, control without fructose 91 mg/dl
Method: The anti diabetic activity was also tested on hamsters made diabetic by the administration of fructose for three months. […]

[4] = In vitro assay of cleavage in an intestinal juice; format: in vitro ADME; conditions: 37° C., arginine hemisuccinimide part not modified
Method: A preparation of intestinal juice containing trypsin, peptidases, lipase, amylase and all the other enzymes of the exocrine pancreas is used. This assay is validated beforehand using calibration compounds. A known amount (of the order of one microgram) of the compound A′V′C′ is mixed together with a known amount of intestinal juice (the trypsin and lipase contents of which are controlled). The reaction mixture is kept at 37° C. for one hour. This time is compatible with the intestinal transit. Samples are taken every 15 min, and the products A and C are detected and their concentration measured using HPLC coupled to a UV detector, or a mass spectrometer if it is not possible to use UV. The columns used depend on the nature of A and of C, but are generally ion-exchange columns, because of the presence of released alcohol, amine or acid forms. […] This assay can be coupled with determination of the release of A (biguanide), C (transporter) and V in the gastric juice, using exactly the same principle but replacing the intestinal juice with gastric juice.
A second assay is carried out on a rat hepatocyte culture, according to the method described above.

[5] = test system: microcirculation of the hamster cheek pouch; assay: Study on the cheek pouch of the hamster (microcirculation); format: in vivo; conditions: vasodilatory action of arginine and action of metformin on vasomotion
[6] = 50 mg/kg
[7] = test system: streptozotocine model and fructose model; conditions: rats, 50 mg/kg; cited from earlier work

| Compound | 4 days treatment (glycemia mM) ([1]; fructose rats, 30 mg/kg/day) | 8 days treatment (glycemia mM) ([1]; fructose rats, 30 mg/kg/day) | 12 days treatment (glycemia mM) ([1]; fructose rats, 30 mg/kg/day) | 21 days treatment (glycemia mM) ([1]; fructose rats, 30 mg/kg/day) | 21 days fructose (glycemia mM) [1] | Control (glycemia mM) [1] | hyperglycemia after treatment [2] | hyperglycemia before treatment [2] | 2 weeks treatment (glycemia mg/dl) [3] | also measured |
| --- | --- | --- | --- | --- | --- | --- | --- | --- | --- | --- |
| N=C(N)NCCC[C@H](N)C(=O)O [arginine] | 14.37 ± 0.20 mM | 12.56 ± 0.89 mM | 11.98 ± 0.71 mM | 10.73 ± 1.27 mM | 13.24 ± 0.62 mM | 6.87 ± 0.14 mM | – | – | – | effect on the antihyperglycemic effects of metformin (NIDDM patients): not modified |
| CN(C)C(=N)NC(=N)N [metformin, N,N-dimethylimidodicarbonimidic diamide] | 13.41 ± 0.52 mM | 10.83 ± 0.64 mM | 9.78 ± 0.72 mM | 9.87 ± 0.68 mM | 12.52 ± 0.52 mM | 6.94 ± 0.13 mM | 9.85 mM | 12.11 mM | 112 mg/dL | effect on the hemodynamic and hemorheological action of arginine (NIDDM patients): potentiates |
| arginine hemisuccinimide-metformin hemisuccinate | – | – | – | – | 12.14 ± 0.28 mM | 6.84 ± 0.06 mM | 7.56 mM | 12.66 mM | 93 mg/dL | release of the metformin [4]: Immediate release; 4 days treatment (glycemia mM) ([1]; fructose rats, 70 mg/kg/day): 10.92 ± 0.44 mM; 8 days treatment (glycemia mM) ([1]; fructose rats, 70 mg/kg/day): 9.13 ± 0.64 mM; 12 days treatment (glycemia mM) ([1]; fructose rats, 70 mg/kg/day): 8.43 ± 0.52 mM; 21 days treatment (glycemia mM) ([1]; fructose rats, 70 mg/kg/day): 7.76 ± 0.78 mM; anti-diabetic activity compared with metformin alone ([1]; fructose rats, equivalent dose of metformin base): significantly more active; anti-diabetic activity compared with metformin on its own ([3]; fructose hamsters, equal dose of 10 mg/kg/day, two weeks of treatment): significantly more active; effects on the microcirculation [5]: reproduces at least the effects of the two active principles; time of concentration peak ([6]; rats, oral, plasma metformin): 60 min |
| CN(C)C(=N)N=C(N)N [metformin hydrochloride] | – | – | – | – | – | – | – | – | – | concentration peak ([6]; rat, in vivo, po): 3.9 µg/mL; time of concentration peak ([6]; rat, in vivo, po): ≤ 90 min; activity on conventional models of non-insulin dependent diabetes [7]: active |
